Columns and labels:
[1] = tested on: Tracheas of adult Wistar rats; test: Tissue damage due to barotrauma ex vivo (tracheal rings); type: cell-based; details: inhibitor 10 micromol, 6 hours before traumatization
Protocol: In order to determine the effects of nitrated fatty acids on mechanical trauma to tracheal cells, an ex vivo model was established. Tracheas of adult Wistar rats sacrificed with thiopental given intraabdominally were carefully resected (harvested). Whole (intact) tracheas were cultured in DMEM 10 (Sigma) supplemented with antibiotic/antimycotic drugs for 48 hours at 37° C. Tracheas were cut into five pieces of equal size. One piece was immediately analyzed, two were bathed in 0.9% saline, one was bathed in a solution containing native fatty acid in SDS (1%), and one was bathed in a solution containing nitro fatty acid, respectively, for 15 minutes each. The inner diameters of the tracheal rings were measured. A non-compliant balloon catheter for use in vascular interventions was chosen, so that the nominal balloon diameter was 15-20% larger than that of the trachea. One tracheal ring pretreated with 0.9% saline was left untreated; the other prepared tracheal rings were mounted on the balloon catheter, which was inflated to a pressure of 4 atm thereafter. Balloons were kept inflated for 4 hours, while being positioned in the culture medium. Thereafter, the tracheal rings were further cultivated in separate vials for 24 hours. In a separate set of investigations, sense/antisense ODNs for HO-1 (Invitrogen) directed against the translation initiation codon in the HO-1 cDNA was used to inhibit hemoxydase-1 synthesis. The cells were transfected using the Superfect transfection reagent (Qiagen) before traumatization. In another set of experiments, the HO inhibitor SnPP IX (Porphyrin Products, London, UK) was added to the culture medium 6 hours before traumatization at a dose of 10 micromol.
For analysis, the rings were cut into small strips using a no touch technique. Viability was tested using a MTT assay and apoptosis using a TUNEL assay. Anti-HO-1 antibodies (StressGen, Tebu, Le-Perray-en-Yvelines, France) were measured by Western blot and immunohistochemistry.

human dermal fibroblasts = test: Extra cellular matrix production (collagen-1) in response to TGF-β2 in dermal fibroblasts; type: cell-based
Protocol: In order to determine whether PPRA gamma stimulation due to nitrated fatty acids plays a role in the inventive inhibition of an aggressive healing pattern to an irritating stimulus, human dermal fibroblasts were investigated. A dominant-negative PPAR gamma mutant (L466A) cell clone was generated by polymerase chain reaction-based site-directed mutagenesis. Presence of PPAR gamma or absence was investigated using a PPAR gamma antibody reaction which was determined using an enhanced chemiluminescence detection system. Furthermore, one cell series was incubated with a selective irreversible PPAR gamma ligand (GW9662, 1 μmol), which effectively blocks PPAR gamma receptors.
Sequential cultivation of human dermal fibroblasts was performed in EMEM containing 5 mM glucose supplemented with 10% FCS under standard cultivation conditions. Cells were allowed to grow to confluence in a 96-well plate. Wild-type fibroblasts and PPAR gamma deficient fibroblasts were investigated by a set-up of 2×10 sample sets comprising: (1) blank control; (2) stimulation control; (3) preincubation with the PPAR gamma antagonist GW9662 (Cayman Chemical); (4) preincubation with the PPAR agonist troglitazone (25 μmol). In 2×4 sample sets, native fatty acids were added to the medium to achieve a final concentration of 10 and 50 μmol, respectively; in another 2×4 sets the nitrated fatty acids were added to the medium in the same concentration, while 2×2 sets served as controls. In 10 of the sets, TGF-β2 was added to the culture medium at a concentration of 25 ng/ml. Cultivation was continued for 48 hours and then processed in order to analyze collagen-1 as measured by enhanced chemiluminescence detection of immuncomplexes.

[2] = tested on: human umbellical endothelial cells (HUVEC); test: Adhesion, propagation and growth of endothelial cells on coated polystyrene films; type: cell-based; details: days 3, 7, 14, compared with native FA; also: key: 0: not superior to native FA (control); +: Superior to native FA; ++: superior to both; +++: outstanding effect
Protocol: Polystyrene scaffolds were prepared and pretreated in the same manner as performed in example 1 by using the same nitrocarboxylic acids as listed in table 1. The film samples were placed in a culture dish containing a gel matrix, in which human umbellical endothelial cells (HUVEC) had been allowed to grow to confluence. The culture medium consisted of 5% FCS, which was replaced every 5 days. Cultivation was performed according to standard conditions. Films were evaluated at days 3, 7, and 14 after careful extraction from the culture dishes, rinsing with saline solution, and staining with methylene blue. Using a reflected light microscope, the films were immediately examined to evaluate the following: Propagation of cells to the film center, cell confluidity, multilayer formation, and cell shape.

Cardiomyocytes = test: TGF-β1-inducible formation of extracellular matrix in cardiomyocytes under shear stress; type: cell-based; details: 10-100 μmol, shear stress up to 100 dyn/cm^2; compared with native FA; also: key: 0: not superior to native FA (control); +: Superior to native FA; ++: superior to both; +++: outstanding effect
Protocol: Characterizing features of the fibrous remodelling in the heart are accentuated expression and deposition of extracellular matrix proteins (ECM). This has been attributed to increased mechanical forces via autocrine release of transforming growth factor-beta (TGF-beta). […] An established cell culture model was used to investigate the effect of shear stress on cardiomyocytes. Cardiomyocytes were cultured and transferred to a matrigel substrate. Plates with confluenced cells were placed into a shear force injury device (SFID). The SFID design is based on a cone-and-plate construction which is a well-defined rheological model in which a homogenously distributed laminar flow over the surface of the cells is generated by a rotating cone. The conical surface is positioned above a stationary flat plate and the fluid medium between these two surfaces is set in motion by rotating the cone to create a uniform level of fluid shear stress throughout the entire surface of the cells cultured on the coverslips.
A peak shear stress of 100 dyn/cm^2 could be applied without significant cell detachment enabling a maximum injury severity of 46%. Cells were exposed to FCS 1% without or with nitro-fatty acid, and the corresponding native fatty acid in a dosage range between 10 μmol and 100 μmol, 10 seconds before shear force application. Shear force peaks up to 100 dyn/cm^2 with a duration of 30 msec each with a repetition frequency of 60/minute were applied for 5, 10, 30 and 60 minutes. Thereafter the cell plates were washed and placed in FCS 1% for 24 hrs. The supernatant of the shear force investigation as well as that of the following culture phase was analysed. It could be shown that TGF-beta and ECM proteins (collagen I, fibronectin, laminin, elastin) increased after treatment in the control groups.

[3] = tested on: Human peripheral blood mononuclear cells (PBMCs); test: Adhesion of serum proteins and monocyte activation induced by coated silicone; type: cell-based; details: dip-coated silicone, PBMCs 3 days; compared with native FA; also: key: 0: not superior to native FA (control); +: Superior to native FA; ++: superior to both; +++: outstanding effect
Protocol: In order to determine the effect of coating implant materials with nitro fatty acids to reduce adsorption of adhesion molecules and monocyte activation, sterile silicone sheets were out in small pieces and coated with respective nirocarboxylic acid and the corresponding native fatty acids by dip coating. Uncoated silicone pieces served as controls. For each fatty acid two sets of silicone pieces were bathed in freshly drawn human serum for 1 hour at 37° C., and another two sets were bathed in saline solutions. One set of both coated and uncoated pieces was analyzed immediately for adhesion proteins and the other set was placed in 96-well plates after rinsing the silicone pieces. Human peripheral blood mononuclear cells (PBMCs), isolated from three healthy subjects, were added to each well. Wells were incubated for 3 days under standard conditions. Culture supernatants were assayed for IL-1beta, IL-6, IL-8, and chemoattractant protein 1 (MCP-1) levels at the start and end of experiments.
Before analyzing the silicone pieces for protein adsorption, they were bathed in saline for 5 minutes. Thereafter, one side was rinsed with saline as performed for both sides in the set used for culturing. There was marked adsorption of fibrinogen and […] C5b-9 on the uncoated silicone. […] No protein was found on the surface of the nitro fatty acid-coated sample that was rinsed, thus, indicating the weak adherence of serum proteins.

[4] = tested on: Murine macrophage-like cells RAW 264.7 and murine L929 fibroblasts; test: Monocyte/fibroblast co-culture on coated surgical suture material; type: cell-based; details: dip-coated suture material, 24 and 48 hours; compared with native FA; also: key: 0: not superior to native FA (control); +: Superior to native FA; ++: superior to both; +++: outstanding effect
Text: In order to determine immunoreactions to foreign material and its consequence on fibrogenesis, co-cultures of fibroblasts and monocytes were used. Commercially available suture materials (propylene, polyamide, and silk) were dip-coated with corresponding native and nitrated fatty acids. Untreated suture material served as control. Treated and untreated suture materials were out in small pieces and placed in a 96-well plate.
Murine macrophage-like cells RAW 264.7 and murine L929 fibroblasts were cultured to a population density of 5×10(5) each. Cell suspensions were merged achieving a cellularity of approximately 2.5×10(5) cell/ml of each cell population which were added to the wells. The suture material samples were fully covered by the suspension. Wells were continuously and gently shaken throughout the incubation period.
Supernatants were collected for assays after 24 and 48 hours and analyzed for profibrotic cytokines IL-13, IL-4, and IL-6, TGF-β1, collagen I.

adult rats = test: Fibrogenesis after traumatic and thermal tissue damage in dermal wound healing in vivo; parameters: species or system rat; details: 100 micromol ethanolic solution on wound margins, 8 weeks, compared with native FA
Text: In order to determine the effects of nitrated fatty acids on fibrogenesis in response to traumatic and thermal tissue damage, an in vivo rat model was investigated. Paravertebral scalpel incision (two on each side) of approximately 1 cm in length and a depth of 1 mm were made in 12 anesthetized adult rats (150-200 g) of either sex after disinfection. Bleeding was stopped by manual compression. The entire length of the wound margins of one incision at each side were additionally cauterized using a 3-mm ball electrode connected to a DRE ASG-120 electrosurgical generator. Wound margins of one side were then covered with a sterile ethanolic 0.9% saline solution, or with a sterile ethanolic solution of the fatty acids (100 micromol), or with a sterile ethanolic solution of the nitrated fatty acids (100 micromol) using a sterile brush. A 1×10 mm cotton string that was bathed in the ethanolic solution containing 0.9% saline, native fatty acid or nitrated fatty acids was placed upon the incision site that had been closed by manual adaptation. The adaptation result and the cotton strings were fixed by an adhesive film. The animals were housed and fed according to institutional standards. The wound films were carefully removed after 2 weeks. Animals were euthanized after 8 weeks. The skin wounds were harvested, including the epidermis, dermis, and subcutaneous loose tissue with the surrounding normal tissue. The removed tissues were fixed in formalin and then embedded in paraffin. The cutting plane was vertical to the longitudinal axis of the former incisions. Slices (4-6 μm) were stained with H&E and Masson trichrome staining to evaluate the amount and density of collagen.

fibroblasts = test: Mechanical alteration of fibroblasts (cyclic stretching of coated polypropylene meshes); type: cell-based; details: day 21 to end of follow-up
Text: In order to simulate the effects of chronic shear forces on a healing wound, an in vitro model was established. A flat balloon was placed on the bottom of a Petri dish. A silicone sheet was placed above and sealed with the side of the Petri dish. Then a 3 mm agar layer was casted on top of the sheet. Commercially available polypropylene meshes for hernia repair (microporous mesh, a low-weight and macroporous mesh with absorbable polyglactin filaments, and a heavy-weight and microporous mesh) were placed on the agar plates and fixed at 4 points at the side of the Petri dish. This setting enabled stretching of the meshes by filling the balloons with air, which was performed at 10-second intervals using an automated pumping device. The model can be used to evaluate the effect of three-dimensional (3D) shear forces on cell growth during cell cultivation. Preincubated suspensions of fibroblasts (1.5×10(5) cells) in a culture medium (10% FCS) were added to the culture dishes and allowed to grow for 48 hours. Cyclic stretching was started at day 3. Histological analysis was performed from the central portions of the meshes at day 7, at day 21, and after 8 weeks. The scaffolds were detached from the culture plate and carefully rinsed. Then, they were cut into pieces, casted, and further processed for standard histology and immunohistology. Care was taken to achieve a cutting plane that was vertical to the surface plane of the meshes. Histological analysis evaluated the cellularity, the content of extra cellular matrix (ECM), and the magnitude of protein synthesis. Meshes were dip-coated with native and nitro fatty acids or left blank in the same manner as in example 1. The uncoated meshes served as controls.

C=CC1=C(C)C2=Cc3c(C=C)c(C)c4[n]3[Sn]([Cl])([Cl])[n]3c(c(C)c(CCC(=O)O)c3=CC3=NC(=C4)C(C)=C3CCC(=O)O)=CC1=N2 [HO-1 inhibitor, reference compound]
HO-1 production [1]: reduced the HO-1 production to the lower detection limit or complete absence

Cc1c(C)c2c(c(C)c1O)CCC(C)(COc1ccc(CC3SC(=O)NC3=O)cc1)O2 (stereo not shown) [PPAR agonist, troglitazone, reference compound]
reduction of collagen-1 concentrations as compared to the control (human dermal fibroblasts; TGF-β2 stimulated, PPAR-positive cells, 25 μmol): 35-40%

O=C(Nc1ccccc1)c1cc([N+](=O)[O-])ccc1Cl [PPAR gamma antagonist, reference compound]
collagen-1 after TGF-β2 stimulation (human dermal fibroblasts; PPAR gamma-positive and -negative cells): marked increase of collagen-1

CCCCCC=CCC=C(C/C=C\CCCCC(=O)O)[N+](=O)[O-] [compound 20, 9-nitro-cis-6,9,12-octadecatrienoic acid]
Relative differences: effect on adhesion, propagation and growth of endothelial cells [2]: 0 | Relative effect on collagen-1 production in response to TGF-β2 (human dermal fibroblasts; 10 and 50 μmol, TGF-β2 25 ng/ml, 48 hours, compared with native FA): + | Relative efficacy to suppress TGF-beta and ECM proteins in cardiomyocytes (Cardiomyocytes): + | Relative effect on serum protein adhesion and monocyte activation [3]: + | Relative effect on profibrotic cytokines and collagen I on suture material [4]: 0 | Relative effect on fibrogenesis (scar formation) in dermal wound healing (adult rats): +

nitrooleic acid
density of actinmyosin filaments in fibroblasts (fibroblasts): more actin-myosin fibers (intra-cellular green filaments) than fibroblasts within the coated meshes

— US20130039956A1, “USE OF NITROCARBOXYLIC ACIDS FOR THE TREATMENT, DIAGNOSIS AND PROPHYLAXIS OF AGGRESSIVE HEALING PATTERNS” (priority 2010, published 2013)
